# Data published in patent publication US6710090B2, “Inhibitory or blocking agents of molecular generating and/or inducing functions” (priority 1994, dated 2004).
# Tests used:
# [1] = Stability of solution under light; assay type: physicochemical; conditions: sealed glass tube, stocked under room light, 6 months after the synthesis
# From the text: <Stability of Solution Under Light>
# pseudomonas aeruginosa = assay: Histological observation of pseudomonas aeruginosa after treatment; assay type: cell-based; conditions: after treatment with Yoshixol
# [2] = tested on: chicken myeloblastosis virus (AMV) reverse transcriptase; assay: AMV reverse transcriptase, amount of cDNA synthesis; assay type: biochemical; conditions: 0.01 μl of Yoshixol added to 25 units AMV reverse transcriptase, RNA 5 μg, PCR
# Procedure: In order to investigate the effect on virus, changes in structure of single strand DNA, double strand DNA and mRNA of E. coli bacteriophage (1 ml of 1 mol solution), which were prepared as non-treated sample and treated sample with 4 μl of Yoshixol, were observed by scanning and transmission electron microscopes. In addition, according a general bacteriological technique, changes in proliferation and in morphological aspect (by scanning and transmission electron microscopes) of E. Coli, which was infected by single strand DNA, double strand DNA or mRNA, were investigated before and after treatment of each phage with Yoshixol. As treated samples, 4 μl of Yoshixol was added in 1 ml of each phage solution which concentration was adjusted to 1 mol. […] In addition, an effect of Yoshixol on chicken myeloblastosis virus (AMV) reverse transcriptase (Gibco Co. Getesburg, Md., USA) was investigated by measuring amount of cDNA synthesis, which was amplified by PCR of RNA(5 μg) and AMV reverse transcriptase (25 units). As treated group, 0.01 μl of Yoshixol was added to 25 units sample of the AMV reverse transcriptase. Thus, the expected production of cDNA was obtained in the non-treated group, however, the amount of cDNA production decreased to 10% of the expected one when Yoshixol was treated (referred FIG. 15).
# HeLa cells = assay: Anti-cancer effect, cultured HeLa cells; assay type: cell-based; conditions: compared with keratinocytes treated with Yoshixol
# [3] = Softening and flexibility effect on skin; parameters: species or system rabbit and dog; conditions: histology, hematoxylin eosin staining
# Procedure: In order to investigate changes of softening and flexibility on skin from rabbit and dog, each skin was is dipped in 5 ml of physiological saline with 10 μl of the test solution. This test solution was prepared from 88 ml of physiological saline with 2 ml of polyoxyethylene (20) sorbitan monoolate 1 (Wakou Jyunyaku Co.) that is identical to Tween80 (ICI Co.) as the basal solution of control. As the treated solution, 10 ml of Yoshixol was added in the basal solution. […] Surgical stitching by the needle was easily to be inserted and transfixed in the skin. […] And, the sample treated with Yoshixol was observed as the preparation which was made from a fresher sample by hematoxylin eosin staining in contrast to the skin sample treated with the test solution of control. Moreover, a similar observation on histological pictures of each sample was obtained even when each skin sample was thawed at 20° C. after storaging each sample at 4° C. in the refrigeration for one month.
# [4] = biological target: T1, Recombinant Taq DNA Polymerase (Thermus aquaticus, UniProt P19821); assay: PCR with polymerase enzymes treated with Yoshixol; assay type: biochemical
# T1 construct: purchased TaKaRa Shuzo Co., Otsu city R001A
# Procedure: Effect of Yoshixol on PCR was investigated by DNA template which was extracted from snake (blue-green snake, captured at Matsumoto city, Nagano). The new synthesized dimer of (SEQ ID NO: 2) (5′>CTTCGGGCTTCGGG<3′) with 7 base-pair alignment (CTTCGGG) above-mentioned was used as a primer. PCR reaction was done by use of DNA thermal cycler (PJ-2000) made in PERKIN ELMER CETUS company. The following six combinations were prepared for the test samples. Those are two kinds of samples which consist of 5 μl of primer (100 pico mole/μl) with 5 μl of Yoshixol (P+) and without Yoshixol (P−). In addition, two kinds of samples which consist of 5 μl. of snake DNA (500 ng/μl) with 5 μl of Yoshixol (D+) and without Yoshixol (D−). And, additional two kinds of samples which consist of 1 μl of polymerase enzymes (Recombinant Taq DNA Polymerase, No. R001A, TaKaRa Shuzo Co., Otsu city: 5 unit/pd) with 1 μl of Yoshixol (Pm+) and without Yoshixol (Pm−). After each sample was placed for 10 minutes at room temperature, each sample was diluted in distilled water. And, it is adjusted in a primer solution of 10 picomole/μl, DNA solution of 50 ng/μl and a polymerase enzymes solution of 0.5 unit/μl. Then, the following combinations were prepared. […] In each combination, amount of cDNA synthesis was amplified by a PCR method and was measured. […]
smiles,measurement,setting,value
"C=C1CC(C)(C)C=CC1=O [Yoshixol, 4,4-dimethyl-6-methylene-2-cyclohexen-1-one]","Changes in coloring, viscosity and odor",[1],did not change
same,histological observation of the bacilli,pseudomonas aeruginosa,swelled as likely as a balloon and were ruptured
same,"amount of cDNA production, of the expected one",[2],10%
same,structure between cells and cellular aspect,HeLa cells,observations similar to the above were found
same,structure damages of each skin,[3],did not found histologically
same,"PCR bounds, group P−, D−, Pm+","[4]; 1 μl polymerase with 1 μl of Yoshixol, untreated 4 bounds between 0.5 and 1.2 kb",only one bound at lowest molecular weight within 4 bounds was appeared
same,"PCR bounds, group P−, D−, Pm+A",[4]; concentration of Yoshixol for the polymerase increased to 100 times,any kind of bounds did not observe
